Measured values reported in ChEMBL document CHEMBL4825690, “Synthesis and biological evaluation of chalcone-polyamine conjugates as novel vectorized agents in colorectal and prostate cancer chemotherapy” (Eur J Med Chem, 2021).
Activity calls are given as the source filed them. The rule behind the calls is not given here.

Experiments:
DU-145 [1] = experiment: Antiproliferative activity against human DU145 cells assessed as reduction in cell viability incubated for 48 hr by MTT assay; format: functional, cell-based; details: DU-145, 48 h
PC-3 [2] = experiment: Antiproliferative activity against human PC3 cells assessed as reduction in cell viability incubated for 48 hr by MTT assay; format: functional, cell-based; details: PC-3, 48 h
HT-29 [3] = experiment: Antiproliferative activity against human HT29 cells assessed as reduction in cell viability incubated for 48 hr by MTT assay; format: functional, cell-based; details: HT-29, 48 h
HT-29 [4] = experiment: Induction of cell cycle arrest in human HT-29 cells assessed as accumulation at G2 phase at IC50 incubated for 48 hrs by RNaeA/propidium iodide based flow cytometry analysis (reference value: 13..16 %); format: functional
HCT-116 [5] = experiment: Induction of cell cycle arrest in human HCT-116 cells assessed as accumulation at S phase at IC50 incubated for 48 hrs by RNaeA/propidium iodide based flow cytometry analysis (reference value: 30.68 %); format: functional
PC-3 [6] = experiment: Induction of cell cycle arrest in human PC3 cells assessed as accumulation at sub-G1 phase at IC50 incubated for 48 hrs by RNaeA/propidium iodide based flow cytometry analysis (reference value: 0 %); format: functional
DU-145 [7] = experiment: Induction of cell cycle arrest in human DU-145 cells assessed as accumulation at G1 phase at IC50 incubated for 48 hrs by […]/propidium iodide based flow cytometry analysis (reference value: 45.5 %); format: functional
DU-145 [8] = experiment: Induction of cell cycle arrest in human DU-145 cells assessed as accumulation at S phase at IC50 incubated for 48 hrs by RNaeA/propidium iodide based flow cytometry analysis (reference value: 38.44 %); format: functional
DU-145 [9] = experiment: Induction of cell cycle arrest in human DU-145 cells assessed as accumulation at G2 phase at IC50 incubated for 48 hrs by […]/propidium iodide based flow cytometry analysis (reference value: 16.06 %); format: functional
HT-29 [10] = experiment: Induction of cell cycle arrest at G1 phase in human HT-29 cells assessed as reduction in Cyclin D1 expression by Western blot analysis; format: functional, cell-based
HT-29 [11] = experiment: Induction of cell cycle arrest at G1 phase in human HT-29 cells assessed as reduction in CDK4 expression by Western blot analysis; format: functional, cell-based
HCT-116 [12] = experiment: Induction of cell cycle arrest in human HCT-116 cells assessed as reduction in CDK2 expression by Western blot analysis; format: functional, cell-based
HCT-116 [13] = experiment: Induction of cell cycle arrest in human HCT-116 cells assessed as reduction in CDK6 expression by Western blot analysis; format: functional, cell-based
HCT-116 [14] = experiment: Induction of cell cycle arrest in human HCT-116 cells assessed as increase in Cyclin D1 expression by Western blot analysis; format: functional, cell-based
HCT-116 [15] = experiment: Induction of cell cycle arrest in human HCT-116 cells assessed as increase in p21 expression by Western blot analysis; format: functional, cell-based
HT-29 [16] = experiment: Induction of cell cycle arrest in human HT-29 cells assessed as increase in p21 expression by Western blot analysis; format: functional, cell-based
PC-3 [17] = experiment: Induction of cell cycle arrest in human PC-3 cells assessed as increase in p21 expression by Western blot analysis; format: functional, cell-based
PC-3 [18] = experiment: Induction of cell cycle arrest in human PC-3 cells assessed as decrease in cyclin A2 expression by Western blot analysis; format: functional, cell-based
DU-145 [19] = experiment: Induction of cell cycle arrest in human DU-145 cells assessed as effect on cyclin A2 expression by Western blot analysis; format: functional, cell-based
HT-29 [20] = experiment: Induction of apoptosis in human HT-29 cells assessed as late apoptotic cells incubated for 48 hrs by annexin-V/FITC and propidium iodide staining based flow cytometry analysis (reference value: 9.52%); format: functional
HT-29 [21] = experiment: Induction of apoptosis in human HT-29 cells assessed as necrotic cells incubated for 48 hrs by annexin-V/FITC and propidium iodide staining based flow cytometry analysis (reference value: 3.52%); format: functional
HCT-116 [22] = experiment: Induction of apoptosis in human HCT-116 cells assessed as late apoptotic cells incubated for 48 hrs by annexin-V/FITC and propidium iodide staining based flow cytometry analysis (reference value: 7.22 %); format: functional
HCT-116 [23] = experiment: Induction of apoptosis in human HCT-116 cells assessed as necrotic cells incubated for 48 hrs by annexin-V/FITC and propidium iodide staining based flow cytometry analysis (reference value: 7.22 %); format: functional
PC-3 [24] = experiment: Induction of apoptosis in human PC-3 cells assessed as early apoptotic cells incubated for 48 hrs by annexin-V/FITC and propidium iodide staining based flow cytometry analysis (reference value: 4.38 %); format: functional
DU-145 [25] = experiment: Induction of apoptosis in human DU-145 cells assessed as early apoptotic cells incubated for 48 hrs by annexin-V/FITC and propidium iodide staining based flow cytometry analysis (reference value: 3.27 %); format: functional
DU-145 [26] = experiment: Induction of apoptosis in human DU-145 cells assessed as necrotic cells incubated for 48 hrs by annexin-V/FITC and propidium iodide staining based flow cytometry analysis (reference value: 0.04 %); format: functional
HT-29 [27] = experiment: Induction of apoptosis in human HT-29 cells assessed as decrease in pro-caspase-3 expression by Western blot assay; format: functional, cell-based
HCT-116 [28] = experiment: Induction of apoptosis in human HCT-116 cells assessed as decrease in pro-caspase-3 expression by Western blot assay; format: functional, cell-based
HT-29 [29] = experiment: Induction of apoptosis in human HT-29 cells assessed as increase in caspase-3 level by Western blot assay; format: functional, cell-based
PC-3 [30] = experiment: Induction of apoptosis in human PC-3 cells assessed as increase in caspase-3 level by Western blot assay; format: functional, cell-based
HCT-116 [31] = experiment: Induction of apoptosis in human HCT-116 cells assessed as increase in caspase-3 level by Western blot assay; format: functional, cell-based
HT-29 [32] = experiment: Induction of apoptosis in human HT-29 cells assessed as increase in cleaved PARP protein expression by Western blot assay; format: functional, cell-based
HCT-116 [33] = experiment: Induction of apoptosis in human HCT-116 cells assessed as increase in cleaved PARP protein expression by Western blot assay; format: functional, cell-based
HT-29 [34] = experiment: Induction of apoptosis in human HT-29 cells assessed as decrease in PARP protein expression by Western blot assay; format: functional, cell-based
DU-145 [35] = experiment: Induction of apoptosis in human DU-145 cells assessed as decrease in PARP protein expression by Western blot assay; format: functional, cell-based
DU-145 [36] = experiment: Induction of apoptosis in human DU-145 cells assessed as increase in DNA fragmentation after 48 hrs by ELISA relative to control; format: functional

- IC50 (DU-145 [1]): 8.86 µM
- IC50 (PC-3 [2]): 13.7 µM
- IC50 (HT-29 [3]): 10.8 µM
Structure (SMILES): COc1cc(C(=O)/C=C/c2ccc(OCCCNCCCNCCCCN)cc2)cc(OC)c1OC
- Activity (HT-29 [4]): 13.32%
- Activity (HCT-116 [5]): 14.4%
- Activity (PC-3 [6]): 26.99%
- Activity (DU-145 [7]): 28.11%
- Activity (DU-145 [8]): 37.34%
- Activity (DU-145 [9]): 34.55%
- Activity (HT-29 [10]): Active
- Activity (HT-29 [11]): Active
- Activity (HCT-116 [12]): Active
- Activity (HCT-116 [13]): Active
- Activity (HCT-116 [14]): Active
- Activity (HCT-116 [15]): Active
- Activity (HT-29 [16]): Active
- Activity (PC-3 [17]): Active
- Activity (PC-3 [18]): Active
- Activity (DU-145 [19]): inactive
- Activity (HT-29 [20]): 31.39%
- Activity (HT-29 [21]): 0.6%
- Activity (HCT-116 [22]): 21.6%
- Activity (HCT-116 [23]): 3.35%
- Activity (PC-3 [24]): 34.25%
- Activity (DU-145 [25]): 52.25%
- Activity (DU-145 [26]): 0.05%
- Activity (HT-29 [27]): Active
- Activity (HCT-116 [28]): Active
- Activity (HT-29 [29]): Active
- Activity (PC-3 [30]): Active
- Activity (HCT-116 [31]): Active
- Activity (HT-29 [32]): Active
- Activity (HCT-116 [33]): Active
- Activity (HT-29 [34]): Active
- Activity (DU-145 [35]): Active
- fold change (FC) (DU-145 [36]): 4.88
